The target in assay [1] is T1, translationally controlled tumor protein (TCTP) (Homo sapiens, UniProt P13693).
T1 construct: gene TPT1; recombinant human TCTP (172 amino acids), codon-optimized, expressed in E. coli, intein tag cleaved on column
T1 sequence (P13693 1-172): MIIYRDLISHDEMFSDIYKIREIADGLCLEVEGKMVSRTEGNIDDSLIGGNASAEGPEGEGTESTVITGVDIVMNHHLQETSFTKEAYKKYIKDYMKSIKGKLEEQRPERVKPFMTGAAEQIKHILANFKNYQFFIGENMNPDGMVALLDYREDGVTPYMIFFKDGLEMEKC
Put plainly: microscale thermophoresis with amine-labeled (BLUE-NHS) purified TCTP, buffer with […] chloroform. The format is binding. A general note: MST reads how a fluorescent partner responds to local heating, with and without ligand.

Assay [2] deals with T1, translationally controlled tumor protein (TCTP). Briefly: microscale thermophoresis with amine-labeled (BLUE-NHS) purified TCTP. The format is binding.

On to `CC(C)(C)c1ccc(CN2CCN(C(c3ccccc3)c3ccc(Cl)cc3)CC2)cc1` (centres unmarked) [buclizine], for which the Kd (usually the free concentration of one partner at which half of the binding sites on the other are occupied at equilibrium, for simple one-to-one binding) in assay [1] was 433 ± 47.1 µM.
`COc1ccc2c(c1)N(C[C@H](C)CN(C)C)c1ccccc1S2` [levomepromazine] had a Kd in assay [2] of 57.2 ± 6.49 µM.

Values taken from paper PMC4941353, “Interaction of antihistaminic drugs with human translationally controlled tumor protein (TCTP) as novel approach for differentiation therapy” (Oncotarget, 2016).
